From publication PMC5126700 (Scientific Reports, 2016)

Experiments:
[1] = target: T1, ERp57 (Homo sapiens, UniProt P30101); test: Isothermal Titration Calorimetry of ERp57 with silibinin; type: binding; settings: Figure 5b, ERp57 5 μM, silibinin 50 μM
T1 construct: we performed the isothermal titration calorimetry of the whole protein and its two mutants; made in house; host or cells: E. coli BL21 (pET21)
T1 sequence (P30101 25-505): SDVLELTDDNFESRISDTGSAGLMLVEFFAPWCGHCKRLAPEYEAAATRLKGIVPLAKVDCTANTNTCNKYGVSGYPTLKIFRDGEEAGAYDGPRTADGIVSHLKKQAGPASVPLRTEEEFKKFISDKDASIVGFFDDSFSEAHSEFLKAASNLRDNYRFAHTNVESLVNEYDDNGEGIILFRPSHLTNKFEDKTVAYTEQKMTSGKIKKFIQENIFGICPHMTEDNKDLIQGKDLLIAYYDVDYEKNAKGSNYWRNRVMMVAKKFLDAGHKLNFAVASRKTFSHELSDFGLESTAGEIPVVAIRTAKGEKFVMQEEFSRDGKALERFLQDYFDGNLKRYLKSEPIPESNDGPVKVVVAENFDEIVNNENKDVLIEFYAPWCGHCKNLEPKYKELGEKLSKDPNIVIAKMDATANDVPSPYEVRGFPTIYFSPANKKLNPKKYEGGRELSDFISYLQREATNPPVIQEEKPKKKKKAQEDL
Method: Both the protein and the ligands were in the same buffer (see Materials and Methods). […] (Lower panel) Integrated heats of reaction plotted against the molar ratio of total ligand concentration to total protein concentration. […] The integrated heat of reaction is plotted against the molar ratio of total ligand concentration to total protein concentration.
ITC experiments were performed at 25 °C using a MicroCal ITC200 microcalorimeter (MicroCal Inc., Northampton, MA, USA). […] Samples were centrifuged before the experiments to eliminate possible aggregates. Protein and ligand solutions were degassed before use. Titrations were performed at 25 °C. The protein solution was placed in the sample cell, and each ligand solution was loaded into the syringe injector. The titrations involved 19 injections of 2 μL at 180 s intervals. The syringe stirring speed was set at 1,000 rpm. The reaction was very fast, as shown by the immediate appearance of an endothermic sharp peak following the addition of ligand to the protein and its deletion mutants solution in the microcalorimetric titration experiment. Reference titrations of ligand into buffer were used to correct for heats of dilution. […] The values of ΔH were measured for each titration, and fitting the binding isotherms with a one-site binding model yielded the values of the association constant (Ka). […]

[2] = test system: ERp57; settings: cited from earlier work

## COc1cc(C2Oc3cc([C@H]4Oc5cc(O)cc(O)c5C(=O)[C@@H]4O)ccc3OC2CO)ccc1O (stereo partly drawn) [silibinin]
[1]
  n (best fit): 0.776 (±0.0183) sites/mole
[1]; read-out: Ka (best fit) (converted)
  Kd: 483 nM
[2]
  affinity for ERp57 compared to calcitriol: at least two orders of magnitude lower
